Measurements as given in patent US6632422B2, “Antiperspirant and deodorant products and methods for their use” (priority 2000, dated 2003).
Counter-ions that a name gives are not always drawn. Like-named read-outs stand apart in the source and are kept apart here.

Assays:
[1] = tested on: isolated human eccrine glands; assay: In vitro sweat reduction study on isolated human eccrine glands; format: cell-based
Excerpt: This example illustrates the ability of CCBAs to reduce sweat secretion from isolated human eccrine glands.
The method employed was analogous to that described by Sato and Sato in Am. J. Physiol., 1973, 225, 1147-1151.

[2] = tested on: Staphylococcus epidermidis; conditions: cited from earlier work
[3] = tested on: secretory coil cells of human apocrine glands; assay: Inhibition of methylcholine-induced calcium influx into human apocrine secretory coil cells (Fura-2); format: cell-based
Protocol: (§1) Collapsed segments of secretory coil were held between two glass pipettes in the perfusion bath of an inverted Olympus IMT-2 microscope and bathed in a solution at 37° C. containing (in mmol.dm^−3): sodium chloride, 130; HEPES (buffer; 4-[2-hydroxyethyl]-1-piperazineethanesulphonic acid), 20; potassium chloride, 5; calcium chloride, 1; magnesium chloride, 1; and glucose, 10. The pH of the solution was adjusted to 7.4 using 1 mol.dm^−3 sodium hydroxide solution.
Intracellular calcium concentration was measured using the fluorescent probe Fura-2, a dye that has high affinity for calcium. When illuminated with ultraviolet light at 350 and 380 nm, Fura-2 emits corresponding fluorescent signals. Importantly, when calcium binds to the dye, the magnitude of the emitted fluoresence signal alters. […]
Segments of secretory coil were incubated for 40 minutes, at 37° C., with 5 μm.dm^−3 Fura-2 AM. This form of Fura-2 is lipid soluble and readily enters the cell where the AM group is cleaved off by esterases, leaving the fluorescent lipid-insoluble dye trapped within the cells. […] The fluorescence resulting from the tissue was passed through a 505 nm bandpass filter, before being detected by a photomultiplier tube. The output from the photomultiplier tube was digitised and analysed using Photon Technology International software. […]

[4] = tested on: secretory coil cells of human eccrine glands; assay: Inhibition of methylcholine-induced calcium influx into human eccrine secretory coil cells (Fura-2); format: cell-based
Protocol: The procedure is performed on an isolated human sweat gland. Collapsed segments of secretory coil are held between two glass pipettes in the perfusion bath of an inverted microscope and bathed at 37° C. in a solution buffered to pH 7.4. Intracellular calcium may be measured by any convenient means; in our tests the fluorescent dye FURA-2 AM was used (full details are given in Examples 1 and 2). The calcium influx induced by the administration of methylcholine at 1 μmol.dm^−3 is compared before and after the introduction of the test material into the buffer solution. Test materials are classed as CCBAs if they are able to reduce the methylcholine-induced calcium influx into the cells, preferably by at least 20%, more preferably by at least 50%. The concentration of test material used should be between 1 and 100 μmol.dm^−3 for pure compounds, 25 μmol.dm^−3 being a typical concentration of use. When the test material used is not a pure compound, for example when it is a plant extract, allowance must be made for the non-active components in the extract when choosing the test dosage.
as §1
The calcium influx was induced by the administration of methylcholine (a cholinergic agonist) at 1 μmol.dm^−3. This was first done for control solutions containing no CCBA and then for test solutions containing tetrandrine (various dosages).
Intracellular calcium concentration was measured using the fluorescent probe Fura-2, a dye that has high affinity for calcium. When illuminated with ultraviolet light at 350 and 380 nm, Fura-2 emits corresponding fluorescent signals. Importantly, when calcium binds to the dye, the magnitude of the emitted fluoresence signal alters. It is these changes that are used to calculate the intracellular calcium concentration (vide infra).
Segments of secretory coil were incubated for 40 minutes, at 37° C., with 5 μm.dm^−3 Fura-2 AM. This form of Fura-2 is lipid soluble and readily enters the cell where the AM group is cleaved off by esterases, leaving the fluorescent lipid-insoluble dye trapped within the cells. Excitation light at 350 and 380 nm was supplied from a computer controlled Photon Technology International (PTI) spectrofluorimeter. This light was passed through a 390 nm dichroic mirror, prior to passage through the microscope objective (×40) and onto the tissue sample. The fluorescence resulting from the tissue was passed through a 505 nm bandpass filter, before being detected by a photomultiplier tube. The output from the photomultiplier tube was digitised and analysed using Photon Technology International software. Background fluorescence (measured prior to introduction of the Fura-2 AM) was subtracted from the total signal for each wavelength and a value representing the intracellular calcium concentration was obtained by dividing the fluorescence value resulting from the 350 nm excitation light by that resulting from the 380 nm excitation light.

[5] = tested on: isolated cannulated monkey palm eccrine sweat glands; conditions: in vitro; cited from earlier work

With `COc1ccc(CCN(C)CCCC(C#N)(c2ccc(OC)c(OC)c2)C(C)C)cc1OC` (stereo not shown) [Verapamil hydrochloride] as the molecule, how does the “% reduction in sweat secretion” value ([1]; dosage 1000 μmol.dm^−3) read?
Its value is 93%.

With `CC(C)=CCCC(C)=CCCC(C)=CCO` [farnesol, 3,7,11-trimethyldodeca-2,6,10-trienol] as the molecule, how does the MIC ([2]; literature values) read?
The MIC was “ca. 25 μg.ml^−1”.

Which results are given for `COc1ccc2cc1Oc1ccc(cc1)C[C@H]1c3cc(c(OC)cc3CCN1C)Oc1c(OC)c(OC)cc3c1[C@H](C2)N(C)CC3` [Tetrandrine, tetrandrine]?
% reduction in sweat secretion ([1]; dosage 50 μmol.dm^−3): 93%; Ca influx inhibition ([3]; dosage 10 μmol.dm^−3, methylcholine 50 μmol.dm^−3): 60%; Ca influx inhibition ([3]; dosage 50 μmol.dm^−3, methylcholine 50 μmol.dm^−3): 93%; Ca influx inhibition ([4]; dosage 1 μmol.dm^−3, methylcholine 1 μmol.dm^−3): 24%; Ca influx inhibition ([4]; dosage 10 μmol.dm^−3, methylcholine 1 μmol.dm^−3): 44%; Ca influx inhibition ([4]; dosage 25 μmol.dm^−3, methylcholine 1 μmol.dm^−3): 75%; Ca influx inhibition ([4]; dosage 50 μmol.dm^−3, methylcholine 1 μmol.dm^−3): 96%; Ca influx inhibition ([4]; dosage 100 μmol.dm^−3, methylcholine 1 μmol.dm^−3): 100%

With methoxy-verapamil as the molecule, how does the “effect on sweat production” value [5] read?
Its value is “reduce sweat production”.

For `CCO` [ethanol], which MIC ([2]; stated by contrast, no source given) is on record?
The MIC was “greater than 1 mg.ml^−1”.

For `Oc1cc(Cl)ccc1Oc1ccc(Cl)cc1Cl` [triclosan, 2′,4,4′-trichloro, 2-hydroxy-diphenyl ether], which MIC ([2]; literature values) is on record?
Its MIC is 0.01 to 10 µg/mL.
